Laboratory results published in patent US8889876B2, “Histone deacetylase inhibitors and uses thereof” (Jiangsu Hengyi Pharmaceutical Co., Ltd., priority 2008, dated 2014).
Values after ≈ are worked out from the molar mass of the structure shown.

How the values were obtained:
histone deacetylase [1] = test: in vitro inhibition of histone deacetylase by HDAC inhibitor screening kit (Biovision K340-100); type: biochemical
Method: An assay for determining the in vitro inhibition activity of the compound on histone deacetylase is conducted according to the specification of HDAC inhibitor screeing kid (Biovision Company/Catalog #K340-100). […]

[2] = system: Colo320 human rectal cancer cells; test: CCK-8 proliferation inhibition, Colo320; type: cell-based; settings: CCK-8 method; for inhibition at 10 µM / inhibition at 100 µM: Homo sapiens, COLO 320
Summary of the method: (§1)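 Read-out is CCK-8 colorimetric viability, expressed as the inhibition rate relative to untreated cells at fixed compound levels of 100 μM and 10 μM.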

[3] = system: K562 human chronic myeloid leukemia cells; test: CCK-8 proliferation inhibition, K562; type: cell-based; settings: for inhibition at 10 µM / inhibition at 100 µM: Homo sapiens; for inhibition at 10 µM: K562, 10 μM; for inhibition at 100 µM: K562, 100 μM
Summary of the method: as §1

[4] = system: Hut78 T-cell Leukemia cell; test: CCK-8 proliferation inhibition, Hut78; type: cell-based; settings: for inhibition at 10 µM / inhibition at 100 µM: Homo sapiens, read-out: Hut-78 (inhibition %); for inhibition at 10 µM: HuT78, 10 μM; for inhibition at 100 µM: HuT78, 100 μM
Summary of the method: as §1

[5] = system: Hut 78 (T-cell Leukemia cell); test: MTT cytotoxicity to tumor cell strains, Hut 78; type: cell-based; settings: Hut 78, MTT; for IC50: Homo sapiens, HuT78, read-out: Cell activity (IC50, μg/ml) Hut 78
Method: (§2) The cytotoxicity of samples to tumor cell strains is determined through MTT.

[6] = system: K562: human chronic myeloid leukemia cell strain; test: MTT cytotoxicity to tumor cell strains, K562; type: cell-based; settings: for IC50: Homo sapiens, read-out: Cell activity (IC50, μg/ml) K562
Method: as §2

[7] = system: PANC-1 human pancreatic cancer cells; test: CCK-8 proliferation inhibition, PANC-1; type: cell-based; settings: for inhibition at 10 µM / inhibition at 100 µM: Homo sapiens; for inhibition at 10 µM: PANC-1, 10 μM; for inhibition at 100 µM: PANC-1, 100 μM
Summary of the method: as §1

[8] = system: Jurkat E6-1 human T-cell lymphoma; test: CCK-8 proliferation inhibition, Jurkat E6-1; type: cell-based; settings: for inhibition at 10 µM / inhibition at 100 µM: Homo sapiens; for inhibition at 10 µM: Jurkat E6.1, 10 μM; for inhibition at 100 µM: Jurkat E6.1, 100 μM
Summary of the method: as §1

histone deacetylase [9] = test: in vitro inhibition activity on histone deacetylase (rat liver homogenate, MAL fluorescent substrate); type: biochemical, rats; settings: n = 4, 37° C., 16 hours
Method: A 96-well plate (black) for determining […] is made by Costar Company of U.S. The histone deacetylase is obtained by homogenization of liver of rats. The histone deacetylase reacts with small molecular fluorescent substrate MAL such that the substrate MAL is deacetylated to become ML.
The compound to be detected is dissolved with 200 μL of DMSO. The stock solution of the compound to be detected is diluted with PBS to a concentration of the working solution. The histone deacetylase, the MAL fluorescent substrate and the compound to be detected are mixed in a water bath at 37° C. and reacted 16 hours. The final concentration of the compound to be detected is: MS275 and its similar compound: 10, 100 μmol/.
The reaction solution is extracted with ethyl acetate. The extract is pumped in vacuum and thereto added 110 μL of methanol (40%). Taking 50 μL/well to a 96-well plate and making a fluorescent detection at 325/390 nm.
The negative control wherein histone deacetylase is not added to the reaction is 100% inhibition. The control that only contains histone deacetylase without any inhibitor is the background (0% inhibition). The inhibition rate of the sample to be detected=(the detected fluorescent value−the background)/(the fluorescent value of the negative control−background)×100%
The inhibition rate and the standard deviation in the results are the average inhibition percentage and the standard deviation of each parallel well in each dosage group.

[10] = system: A549 (human lung adenocarcinoma cells); test: MTT cytotoxicity to tumor cell strains, A549; type: cell-based; settings: for IC50: Homo sapiens, read-out: Cell activity (IC50, μg/ml) A549
Method: as §2

[11] = system: A549 human lung cancer cells; test: CCK-8 proliferation inhibition, A549; type: cell-based; settings: CCK-8 method; for inhibition at 10 µM / inhibition at 100 µM: Homo sapiens, A549
Summary of the method: as §1

[12] = system: MDA-MB-435s human breast cancer cells; test: CCK-8 proliferation inhibition, MDA-MB-435s; type: cell-based; settings: CCK-8 method; for inhibition at 10 µM / inhibition at 100 µM: Homo sapiens, MDA-MB-435S
Summary of the method: as §1

[13] = system: Hep3B2.1-7 human liver cancer cells; test: CCK-8 proliferation inhibition, Hep3B2.1-7; type: cell-based; settings: CCK-8 method; for inhibition at 10 µM / inhibition at 100 µM: Homo sapiens, Hep3B
Summary of the method: as §1

[14] = system: PC-3 human prostate cancer; test: CCK-8 proliferation inhibition, PC-3; type: cell-based; settings: CCK-8 method; for inhibition at 10 µM / inhibition at 100 µM: Homo sapiens
Summary of the method: as §1

For `Nc1cnccc1NC(=O)c1ccc(CNC(=O)OCc2cccnc2)cc1` [V-5], the “Inhibition rate(%)” value (histone deacetylase [1]; 3.91 μM) was 7.6%, the “Inhibition rate(%)” value (histone deacetylase [1]; 62.5 μM) was 28.0% and the “Inhibition rate(%)” value (histone deacetylase [1]; 2 mM) was 77.1%. The inhibition at 10 µM ([2]; compound concentration 10 μM) was 39.6%, the inhibition at 100 µM ([2]; compound concentration 100 μM) was 92.9% and the inhibition at 10 µM [3] was 21%. For the same compound, the inhibition at 100 µM [3] was 64.4%, the inhibition at 10 µM [4] was 43.4% and the inhibition at 100 µM [4] was 72.8%. The IC50 [5] was 0.4 µg/mL (≈ 1.06 µM), the IC50 [6] was over 100 µg/mL and the inhibition at 10 µM [7] was 20.7%. The inhibition at 100 µM [7] was 74.1%, the inhibition at 10 µM [8] was 58.5% and the inhibition at 100 µM [8] was 85.9%. The “inhibition rate % average number” value (histone deacetylase [9]; dosage 10 μmol/L) was 9.422%, the “inhibition rate % average number” value (histone deacetylase [9]; dosage 100 μmol/L) was 37.240% and the IC50 [10] was over 100 µg/mL. For the same compound, the inhibition at 10 µM ([11]; compound concentration 10 μM) was 65.6%, the inhibition at 100 µM ([11]; compound concentration 100 μM) was 84.8% and the inhibition at 10 µM ([12]; compound concentration 10 μM) was 35.8%. For the same compound, the inhibition at 100 µM ([12]; compound concentration 100 μM) was 86.9%, the inhibition at 10 µM ([13]; compound concentration 10 μM) was 31.2% and the inhibition at 100 µM ([13]; compound concentration 100 μM) was 53.6%. It also gave an inhibition at 10 µM ([14]; compound concentration 10 μM) of 90.3% and an inhibition at 100 µM ([14]; compound concentration 100 μM) of 92.4%.

`Nc1ncccc1NC(=O)c1ccc(CNC(=O)OCc2cccnc2)cc1` [V-4, N-(2-amino-3-pyridyl)-4-[(3-pyridylmethoxyacyl)aminomethyl]benzamide] was tested, and the “Inhibition rate(%)” value (histone deacetylase [1]; 3.91 μM) was 9.4%, the “Inhibition rate(%)” value (histone deacetylase [1]; 62.5 μM) was 19.8% and the “Inhibition rate(%)” value (histone deacetylase [1]; 2 mM) was 65.2%. It also gave an inhibition at 10 µM ([2]; compound concentration 10 μM) of 33.2%, an inhibition at 100 µM ([2]; compound concentration 100 μM) of 78.3% and an inhibition at 10 µM [3] of 22.4%. The inhibition at 100 µM [3] was 30.8%, the inhibition at 10 µM [4] was 36% and the inhibition at 100 µM [4] was 67.2%. For the same compound, the IC50 [5] was 4.21 µg/mL (≈ 11.2 µM), the IC50 [6] was over 100 µg/mL and the inhibition at 10 µM [7] was 40.2%. It also gave an inhibition at 100 µM [7] of 65.4%, an inhibition at 10 µM [8] of 48.5% and an inhibition at 100 µM [8] of 79.3%. For the same compound, the “inhibition rate % average number” value (histone deacetylase [9]; dosage 10 μmol/L) was 1.644%, the “inhibition rate % average number” value (histone deacetylase [9]; dosage 100 μmol/L) was 12.033% and the IC50 [10] was over 100 µg/mL. It also gave an inhibition at 10 µM ([11]; compound concentration 10 μM) of 50.6%, an inhibition at 100 µM ([11]; compound concentration 100 μM) of 89.7% and an inhibition at 10 µM ([12]; compound concentration 10 μM) of 26.7%. For the same compound, the inhibition at 100 µM ([12]; compound concentration 100 μM) was 87.5%, the inhibition at 10 µM ([13]; compound concentration 10 μM) was 2.6% and the inhibition at 100 µM ([13]; compound concentration 100 μM) was 37.4%. For the same compound, the inhibition at 10 µM ([14]; compound concentration 10 μM) was 79.5% and the inhibition at 100 µM ([14]; compound concentration 100 μM) was 91.5%.

`Nc1ccccc1NC(=O)c1ccc(CNC(=O)OCc2cccnc2)cc1` [MS-275, reference compound] was tested, and the “Inhibition rate(%)” value (histone deacetylase [1]; 3.91 μM) was 32.5%, the “Inhibition rate(%)” value (histone deacetylase [1]; 62.5 μM) was 60.5% and the “Inhibition rate(%)” value (histone deacetylase [1]; 2 mM) was 82.2%. The “Colo320 (inhibition %)” value ([2]; compound concentration 10 μM) was 18.0%, the “Colo320 (inhibition %)” value ([2]; compound concentration 100 μM) was 61.6% and the “K562 (inhibition %)” value ([3]; 10 μM) was 66.2%. For the same compound, the “K562 (inhibition %)” value ([3]; 100 μM) was 74.6%, the “Hut-78 (inhibition %)” value ([4]; 10 μM) was 61.8% and the “Hut-78 (inhibition %)” value ([4]; 100 μM) was 85.3%. For the same compound, the “Cell activity (IC50, μg/ml) Hut 78” value [5] was 0.15 µg/mL, the “Cell activity (IC50, μg/ml) K562” value [6] was 3.20 µg/mL and the “PANC-1 (inhibition %)” value ([7]; 10 μM) was 12.4%. The “PANC-1 (inhibition %)” value ([7]; 100 μM) was 31.6%, the “Jurkat E6-1 (inhibition %)” value ([8]; 10 μM) was 89.5% and the “Jurkat E6-1 (inhibition %)” value ([8]; 100 μM) was 96.1%. For the same compound, the “inhibition rate % average number” value (histone deacetylase [9]; dosage 10 μmol/L) was 45.588%, the “inhibition rate % average number” value (histone deacetylase [9]; dosage 100 μmol/L) was 66.300% and the “Cell activity (IC50, μg/ml) A549” value [10] was 24.42 µg/mL. The “A549 (inhibition %)” value ([11]; compound concentration 10 μM) was 58.9%, the “A549 (inhibition %)” value ([11]; compound concentration 100 μM) was 92.3% and the “435s(inhibition %)” value ([12]; compound concentration 10 μM) was 2.7%. For the same compound, the “435s(inhibition %)” value ([12]; compound concentration 100 μM) was 59.3%, the “Hep3B (inhibition %)” value ([13]; compound concentration 10 μM) was 10.8% and the “Hep3B (inhibition %)” value ([13]; compound concentration 100 μM) was 52.1%. For the same compound, the “PC-3 (inhibition %)” value ([14]; compound concentration 10 μM) was 12.5% and the “PC-3 (inhibition %)” value ([14]; compound concentration 100 μM) was 71.5%.

With “N-(2-amino-4-pyridyl)-4-[(2-naphthylmethoxyacyl)aminomethyl]benzamide [V-24]” the “Colo320 (inhibition %)” value ([2]; compound concentration 10 μM) was −2.3%, the “Colo320 (inhibition %)” value ([2]; compound concentration 100 μM) was −17.1% and the “K562 (inhibition %)” value ([3]; 10 μM) was 42.8%. The “K562 (inhibition %)” value ([3]; 100 μM) was 29.7%, the “Hut-78 (inhibition %)” value ([4]; 10 μM) was 26.2% and the “Hut-78 (inhibition %)” value ([4]; 100 μM) was 20.7%. For the same compound, the “Cell activity (IC50, μg/ml) Hut 78” value [5] was 0.30 µg/mL, the “Cell activity (IC50, μg/ml) K562” value [6] was 6.23 µg/mL and the “PANC-1 (inhibition %)” value ([7]; 10 μM) was 8.0%. For the same compound, the “PANC-1 (inhibition %)” value ([7]; 100 μM) was 7.8%, the “Jurkat E6-1 (inhibition %)” value ([8]; 10 μM) was 37.2% and the “Jurkat E6-1 (inhibition %)” value ([8]; 100 μM) was 22.1%. The “inhibition rate % average number” value (histone deacetylase [9]; dosage 10 μmol/L) was 46.547%, the “inhibition rate % average number” value (histone deacetylase [9]; dosage 100 μmol/L) was 70.300% and the “Cell activity (IC50, μg/ml) A549” value [10] was 7.11 µg/mL. For the same compound, the “A549 (inhibition %)” value ([11]; compound concentration 10 μM) was 48.7%, the “A549 (inhibition %)” value ([11]; compound concentration 100 μM) was 65.7% and the “435s(inhibition %)” value ([12]; compound concentration 10 μM) was 49.8%. For the same compound, the “435s(inhibition %)” value ([12]; compound concentration 100 μM) was 50.4%, the “Hep3B (inhibition %)” value ([13]; compound concentration 10 μM) was 24.8% and the “Hep3B (inhibition %)” value ([13]; compound concentration 100 μM) was 13.5%. For the same compound, the “PC-3 (inhibition %)” value ([14]; compound concentration 10 μM) was 5.1% and the “PC-3 (inhibition %)” value ([14]; compound concentration 100 μM) was 3.4%.

With `O=C(NCc1ccc(C(=O)Nc2ccccn2)cc1)OCc1cccnc1` [V-2, N-(2-pyridyl)-4-[(3-pyridylmethoxyacyl)aminomethyl]benzamide] the IC50 [5] was 76.2 µg/mL (≈ 210 µM), the IC50 [6] was over 100 µg/mL and the “inhibition rate % average number” value (histone deacetylase [9]; dosage 10 μmol/L) was −0.124%. The “inhibition rate % average number” value (histone deacetylase [9]; dosage 100 μmol/L) was 0.080% and the IC50 [10] was over 100 µg/mL.
